Experimental data reported in US6214821A, “Methods and composition for the inhibition of cancer cells” (Washington State University Research Foundation, priority 1999, dated 2001).
Where two headings read alike, the source gives them in different places.

Tests used:
[1] = Death of animals injected with UCN-01; details: i.m., doses higher than 5 mg/kg
MDA-231 (mutant p53) = experiment: Crystal violet staining growth inhibition assay, median effect analysis; details: Homo sapiens, MDA-MB-231, 24 h, read-out: IC50 MDA-231 (p53-)
HMEC (p53+) = experiment: as above; details: Homo sapiens, 24 h, read-out: IC50 HMEC (p53+)
[2] = 72- or 3-h infusion, NCI Phase I; cited from earlier work
HMEC/E6 (p53-) = experiment: Crystal violet staining growth inhibition assay, median effect analysis; format: cell-based; details: Homo sapiens, 24 hr treatment
Description: Cytotoxicity and Bromodeoxyuridine incorporation assays. […] Enzyme Regul.

GI 101A cells = experiment: cells; format: cell-based, human
Description: (§1) . Cell lines and Culture.
(§2) Drugs and Chemical Reagents. […] . […] All other chemicals were reagent grade.
(§3) Drug Treatment and Survival Curves.
(§4) Pharmacol. 28:370-376 (1991). […] .
(§5) Drug Combinations and Data Analysis. […] . Pharmacol. (in press, 1997). […] Enzyme Regul. […] Enzyme Regul. 22:27-55 (1984).
(§6) . […] Enzyme Regul. 22:27-55 (1984).

MDA-231 cells = experiment: cells; format: cell-based, human
Description: as §1, §2, §3, §4, §5, §6

[3] = tested on: normal bovine venular endothelial cells (BVEC)
Procedure: Cell lines and Culture. […] Normal bovine venular endothelial cells (BVEC) were maintained in DMEM media (Gibco) supplemented with 1 mM sodium pyrovate (Gibco), and 20% bovine calf serum (Hyclone). Cell viability was determined using the trypan blue exclusion test. To ensure an exponential growth, cells were plated in fresh medium 24 h before each treatment.
Drug Treatment and Survival Curves. Cytotoxicity studies were initiated by plating 2×10^4 cells obtained from exponentially growing cultures in 24-well tissue culture plates (Coming-Costar, Cambridge Mass.) in the appropriate medium. Following 24 h incubation at 37° C., drugs were added to quadruplicate wells and incubated for 24 h, the wells were washed twice with prewarmed phosphate-buffered saline (PBS) and then incubated with drug-free medium for 2-3 doubling times.

[4] = UCN-01 pharmacokinetics in rats, effect of human AGP; format: in vivo, male Wistar rats; details: for half-life / clearance / Vd: 10 mg/kg; for half-life: range over the two groups (without and with 10 mg human AGP); for clearance: read-out: total body clearance (converted); for Vd: read-out: volume of distribution during the elimination phase
Description: Many basic drugs tend to bind in variable degrees to AGP (Knowlton, K. et al., "Bcl-2 slows in vitro breast cancer growth despite its antiapoptotic effect," J. Surg. Res. 76:22-26 (1998)). […] Thus monitoring changes in the pharmacokinetic drug concentrations in these pathological conditions is extremely important, since dosage adjustment would be considered. For our drug combination, this binding is of a crucial consequence since the attainable plasma and tumor concentrations may be questionable and plasma protein displacement interaction may occur and can lead to undesirable side effects. Thus the role of human α1 -acid glycoprotein (AGP) binding on UCN-01 disposition was determined. In this example, two groups of rats were prepared by cannulating the femoral vein and artery. The first group (n=6) received UCN-01 (10 mg/kg i.v.) by slow infusion over 1 min., while the second group (n=5) received UCN-01+10 mg human α1 -acid glycoprotein. Plasma samples were obtained over time (0-700 min), and were analyzed for UCN-01 by HPLC system (Shimazdu LC), detecting peaks using fluorescence detector (excitation=310 nm, emission=410).

[5] = tested on: α1 -acid glycoprotein (AGP); details: cited from earlier work
[6] = Tissue distribution of UCN-01 in rats, effect of human AGP; format: in vivo, male Wistar rats; details: rat, iv, 10 mg/kg
Procedure: The role of human AGP binding on the tissue distribution of UCN-01. In this study, two groups of rats (n=3) were infused with bolus injection of either UCN-01 (10 mg/kg) or UCN-01+ human AGP (10 mg/kg +10 mg). On hour following drug administration, plasma samples as well as organ tissues (brain, muscle, kidneys, lungs, liver, heart and spleen) were collected. Tissues were digested and homogenized, protein was precipitated with cold ethanol/1% ascorbic acid, and the supernatant was extracted with chloroform. The organic phase was then dried under nitrogen, reconstituted in acetonitrile and analyzed by HPLC as mentioned above.

[7] = rat, plasma, iv, UCN-01 10 mg/kg i.v. + 10 mg human AGP
[8] = rat, plasma, iv, UCN-01 10 mg/kg i.v. alone

CN[C@@H]1C[C@H]2O[C@@](C)([C@@H]1OC)n1c3ccccc3c3c4c(c5c6ccccc6n2c5c31)C(=O)N[C@@H]4O [UCN-01, 7-hydroxystaurosporine]
death of animals [1]: Death of animals injected with doses higher than 5 mg/kg was observed
IC50 (MDA-231 (mutant p53)): 49.6 nM
IC50 (HMEC (p53+)): 0.07 nM
distribution volume [2]: small distribution volume
half-life [2]: long half-life
plasma concentrations [2]: high plasma concentrations
systemic clearance [2]: Extremely low systemic clearance
IC50 (HMEC/E6 (p53-)): 1.4 nM
enhancement of CPT cytotoxicity (GI 101A cells): about 30 fold
enhancement of CPT cytotoxicity (MDA-231 cells): ~40 fold
enhancement of CPT-induced cytotoxicity [3]: no enhancement of CPT-induced cytotoxicity
duration of peak plasma concentration >100 nM ([4]; 10 mg/kg i.v., presence of human AGP): up to 300 min
half-life ([4]; rat, plasma, iv, 10 mg/kg i.v., read-out: t1/2α): 0.183 to 0.85 h
half-life ([4]; rat, plasma, iv, 10 mg/kg i.v., read-out: t1/2β): 6.65 to 6.95 h
clearance [4, 7]: 1.5 mL/min
Vd [4, 7]: 1.7 L/kg
clearance [4, 8]: 4.33 mL/min
Vd [4, 8]: 6.8 L/kg
Cmax ([4]; rat, plasma, iv, 10 mg/kg i.v., presence of human AGP, read-out: peak plasma concentration): > 100 nM
binding to α1-acid glycoprotein [5]: high affinity binding
Kp at 1 h ([6]; all tissues, UCN-01, 1 h, read-out: tissue:plasma ratios, all tissues): 10 to 1190
concentration at 1 h ([6]; brain, brain, UCN-01 10 mg/kg alone, 1 h, read-out: tissue concentration): 2450 ± 495 ng/g
Kp at 1 h ([6]; brain, brain, UCN-01 + human AGP, 1 h, read-out: Tissue/Plasma ratio): 0.6 ± 0.33
concentration at 1 h ([6]; brain, brain, UCN-01 + human AGP, 1 h, read-out: tissue concentration): 1720 ± 78.4 ng/g
Kp at 1 h ([6]; brain, brain, UCN-01 alone, 1 h, read-out: Tissue/Plasma ratio): 10.5 ± 1.9
concentration at 1 h ([6]; heart, heart, UCN-01 10 mg/kg alone, 1 h, read-out: tissue concentration): 19900 ± 9940 ng/g
Kp at 1 h ([6]; heart, heart, UCN-01 + human AGP, 1 h, read-out: Tissue/Plasma ratio): 3.5 ± 1.7
concentration at 1 h ([6]; heart, heart, UCN-01 + human AGP, 1 h, read-out: tissue concentration): 10100 ± 4900 ng/g
Kp at 1 h ([6]; heart, heart, UCN-01 alone, 1 h, read-out: Tissue/Plasma ratio): 86.8 ± 41.7
concentration at 1 h ([6]; kidney, kidney, UCN-01 10 mg/kg alone, 1 h, read-out: tissue concentration): 73200 ± 3050 ng/g
Kp at 1 h ([6]; kidney, kidney, UCN-01 + human AGP, 1 h, read-out: Tissue/Plasma ratio): 14 ± 5.6
concentration at 1 h ([6]; kidney, kidney, UCN-01 + human AGP, 1 h, read-out: tissue concentration): 39400 ± 8510 ng/g
Kp at 1 h ([6]; kidney, kidney, UCN-01 alone, 1 h, read-out: Tissue/Plasma ratio): 298 ± 40
concentration at 1 h ([6]; liver, liver, UCN-01 10 mg/kg alone, 1 h, read-out: tissue concentration): 42900 ± 3210 ng/g
Kp at 1 h ([6]; liver, liver, UCN-01 + human AGP, 1 h, read-out: Tissue/Plasma ratio): 11.3 ± 1.34
concentration at 1 h ([6]; liver, liver, UCN-01 + human AGP, 1 h, read-out: tissue concentration): 30100 ± 2530 ng/g
Kp at 1 h ([6]; liver, liver, UCN-01 alone, 1 h, read-out: Tissue/Plasma ratio): 189 ± 131
concentration at 1 h ([6]; lung, lung, UCN-01 10 mg/kg alone, 1 h, read-out: tissue concentration): 279000 ± 19600 ng/g
Kp at 1 h ([6]; lung, lung, UCN-01 + human AGP, 1 h, read-out: Tissue/Plasma ratio): 53.6
concentration at 1 h ([6]; lung, lung, UCN-01 + human AGP, 1 h, read-out: tissue concentration): 141000 ± 12000 ng/g
Kp at 1 h ([6]; lung, lung, UCN-01 alone, 1 h, read-out: Tissue/Plasma ratio): 1190 ± 775
concentration at 1 h ([6]; muscle, muscle, UCN-01 10 mg/kg alone, 1 h, read-out: tissue concentration): 11900 ± 783 ng/g
Kp at 1 h ([6]; muscle, muscle, UCN-01 + human AGP, 1 h, read-out: Tissue/Plasma ratio): 2.27 ± 1.11
concentration at 1 h ([6]; muscle, muscle, UCN-01 + human AGP, 1 h, read-out: tissue concentration): 6590 ± 3060 ng/g
Kp at 1 h ([6]; muscle, muscle, UCN-01 alone, 1 h, read-out: Tissue/Plasma ratio): 60 ± 5.48
concentration at 1 h ([6]; plasma, plasma, UCN-01 10 mg/kg + human AGP 10 mg, 1 h, mean ± SD, n=3, read-out: plasma concentration): 2960 ± 250 ng/mL
concentration at 1 h ([6]; plasma, plasma, UCN-01 10 mg/kg alone, 1 h, mean ± SD, n=3, read-out: plasma concentration): 240 ± 35 ng/mL
concentration at 1 h ([6]; spleen, spleen, UCN-01 10 mg/kg alone, 1 h, read-out: tissue concentration): 74900 ± 5170 ng/g
Kp at 1 h ([6]; spleen, spleen, UCN-01 + human AGP, 1 h, read-out: Tissue/Plasma ratio): 19.6 ± 14.7
concentration at 1 h ([6]; spleen, spleen, UCN-01 + human AGP, 1 h, read-out: tissue concentration): 53300 ± 3120 ng/g
Kp at 1 h ([6]; spleen, spleen, UCN-01 alone, 1 h, read-out: Tissue/Plasma ratio): 326 ± 208
